Reference: patent US7893263B2, “Structural analogs of corosolic acid having anti-diabetic and anti-inflammatory properties” (Laila Nutraceuticals, priority 2004, dated 2011)

Columns and labels:
[1] = test system: Albino wistar rats; test: Hypoglycemic activity: inhibition of sucrose-induced raise in serum glucose levels (SGL); format: in vivo; design: Inhibitory rate (serum glucose level inhibitory rate): unit not given here; conditions: oral dose 1 mg/Kg; for SGL (mean ± SE): 20 mL/kg of 20% sucrose orally after 30 minutes, blood drawn one hour after treatment, groups of six rats; for Inhibitory rate (serum glucose level inhibitory rate): mean increase in serum glucose levels of treated vs control groups
Protocol: Hypoglycemic activity: Hypoglycemic activity was tested by the inhibition of sucrose-induced raise in serum glucose levels (SGL), by the test substances in Albino wistar rats. The procedure involves fasting the rats for overnight at ad libitum water, numbered weighed and randomly divided into groups of six animals each. Prior to treatment blood samples were drawn from sinus orbital plexus of all animals using heparin coated glass capillaries under mild ether anesthesia. The blood samples were tested for serum glucose levels using enzymatic GOD/POD method. […] SGL=(test OD/Standard OD)×100 and the results were expressed in mg/dL. All the groups were treated orally with corresponding test substances, standard, vehicle (5% gum acacia). After 30 minutes, all animals were given 20 mL/kg of 20% sucrose solution orally using gastric tube. One hour after treatment, blood samples were drawn again under mild ether anesthesia and tested for serum glucose levels in a same procedure as described above for initial serum glucose estimation. The data was subjected to statistical treatment using t-test and inhibitory rate was calculated by comparing mean increase in serum glucose levels of control and treated groups. The corosolic acid analogs of this invention are found to show better hypoglycemic activity (Table 1; hypoglycemic activity is expressed in serum glucose level inhibitory rate values; higher the inhibitory rate value, higher is the activity) than the corosolic acid.

[2] = test system: 5-Lipoxygenase; test: 5-Lipoxygenase inhibitory activity, colorimetric method (ferric xylenol orange, linoleic acid); format: biochemical
Protocol: 5-Lipoxygenase activity: The corosolic acid analogs were screened for their 5-Lipoxygenase inhibitory potential using colorimetric method. The assay mixture contained 50 mM phosphate buffer pH 6.3, 5-Lipoxygenase, various concentrations of test substances in dimethyl sulphoxide and linoleic acid in a total volume of 0.5 mL, after 5 min incubation of above reaction mixture, 0.5 mL ferric xylenol orange reagent was added and OD was measured after two minutes at 585 nm using spectrophotometer. Controls were run along with test in a similar manner except using vehicle instead of test substance solution. Percent inhibition was calculated by comparing absorbance of test solution with that of control.
The corosolic acid analogs of this invention are found to show good 5-lipoxygenase activity (Table 2; 5-lipoxygenase activity is expressed in % of inhibition at 100 μM and 250 μM; higher the % inhibitory values, higher is the activity).

[3] = test system: Brine shrimp (Artemia salina) nauplii; test: in vivo; conditions: 24 h at 37° C., 10 nauplii per vial
Protocol: Brine shrimp lethality: Brine shrimp (Artemia salina) nauplii were hatched using brine shrimp eggs in a conical shaped vessel (1 L), filled with sterile artificial sea water (prepared using sea salt 38 g/L and adjusted to pH 8.5 using 1 N NaOH) under constant aeration for 48 h. After hatching, 10 nauplii were drawn through a pepette and placed in each vial containing 4.5 mL brine solution and added various concentrations of drug solutions and volume was made upto 5 mL using brine solution and maintained at 37° C. for 24 h under the light of incandescent lamps and surviving larvae were counted. Each experiment was conducted along with control (vehicle treated), at various concentrations of the test substance in each set that contains 6 tubes and the average results are reported. The percentage lethality was determined by comparing the mean mortal larvae of test and control tubes. LC50 values were obtained from the plot of concentration (μg) vs. percentage lethality. Podophyllotoxin was used as a positive control.
The corosolic acid analogs of this invention are found to show significant brine shrimp lethality (Table 3; brine shrimp lethality is expressed in LC50 at μM concentration; lower the LC50 value, higher is the activity).

Compound | SGL (mean ± SE) [1] | Inhibitory rate (serum glucose level inhibitory rate) [1] | % inhibition of 5-Lox activity ([2]; 100 μM) | % inhibition of 5-Lox activity ([2]; 250 μM) | LC50 [3]
2-O-Acetylcorosolic acid and 3-O-acetylcorosolic acid [Compound 1] | 109.54 ± 2.80 mg/dL | 32.75 | 15.47% | 24.05% | 9.7 µM
3-O-acetyl-11-keto-β-boswellic acid [AKBA, reference compound] | – | – | 17.45% | 25.3% | –
CC(=O)O[C@@H]1C[C@]2(C)[C@H]3CC=C4[C@@H]5[C@@H](C)[C@H](C)CC[C@]5(C(=O)O)CC[C@@]4(C)[C@]3(C)CC[C@H]2C(C)(C)[C@H]1OC(C)=O [Compound 2, 2,3-Di-O-acetylcorosolic acid] | – | – | 20.08% | 44.54% | 1.8 µM
CC1CCC2(C(=O)O)CCC3(C)C(=CCC4C5(C)CC(OC(=O)c6cccnc6)C(O)C(C)(C)C5CCC43C)C2C1C (stereo not shown) [Compound 3, 2-O-Nicotinoylcorosolic acid] | 115.86 ± 3.77 mg/dL | 13.9 | 28.54% | 53.19% | 86.6 µM
CC1CCC2(C(=O)O)CCC3(C)C(=CCC4C5(C)CC(OC(=O)CN)C(O)C(C)(C)C5CCC43C)C2C1C.Cl (stereo not shown) [Compound 4, 2-O-Glycylcorosolic acid hydrochloride] | 119.23 ± 9.58 mg/dL | 26.8 | 17.04% | 27.83% | 3.9 µM
CC(N)C(=O)OC1CC2(C)C(CCC3(C)C2CC=C2C4C(C)C(C)CCC4(C(=O)O)CCC23C)C(C)(C)C1O.Cl (stereo not shown) [Compound 5, 2-O-Alanylcorosolic acid hydrochloride] | 113.49 ± 4.11 mg/dL | 22.39 | 29.14% | 67.03% | 3.4 µM
COC(=O)C12CCC(C)C(C)C1C1=CCC3C4(C)CC(OC(=O)C=Cc5cc(OC)c(OC)c(OC)c5)C(O)C(C)(C)C4CCC3(C)C1(C)CC2 (stereo not shown) [Compound 6, Methyl 2-O-(3,4,5-trimethoxycinnamoyl)corosolate] | 114.15 ± 6.62 mg/dL | 21.94 | – | 13.47% | > 200 µM
CC1CCC2(C(=O)O)CCC3(C)C(=CCC4C5(C)CC6OS(=O)(=O)OC6C(C)(C)C5CCC43C)C2C1C (stereo not drawn) [Compound 7, 2α,3β-Dihydroxyurs-12-en-28-oic acid 2,3-cyclicsulphate] | – | – | – | 16.90% | 15 µM
C[C@H]1[C@H](C)CC[C@]2(C(=O)O)CC[C@]3(C)C(=CC(=O)[C@@H]4[C@@]5(C)C[C@@H](O)[C@H](O)C(C)(C)[C@@H]5CC[C@]43C)[C@H]12 [Compound 17, 11-Ketocorosolic acid] | 120.90 ± 9.66 mg/dL | 25.78 | – | – | –
CC(=O)OC1CC2(C)C(CCC3(C)C2C(=O)C=C2C4C(C)C(C)CCC4(C(=O)O)CCC23C)C(C)(C)C1OC(C)=O (stereo not shown) [Compound 18, Diacetyl-11-ketocorosolic acid] | – | – | – | – | 87.7 µM
COC(=O)C12CCC(C)C(C)C1C1=CC(O)C3C4(C)CC(O)C(O)C(C)(C)C4CCC3(C)C1(C)CC2 (stereo not shown) [Compound 22, Methyl 11-hydroxycorosolate] | – | – | 24.56% | 49.40% | 19.9 µM
CC(Cc1ccc(O)c(O)c1)C(C)Cc1ccc(O)c(O)c1 (stereo not shown) [NDGA, Nordihydroguaiaretic acid, reference compound] | – | – | 70.4% | 91.55% | –
Methyl diacetyl-11-ketocorosolate [Compound 16] | – | – | – | 3.82% | 82.3 µM
Methyl diacetylcorosolate [Compound 14] | – | – | – | 1.9% | 42.1 µM
